Data set [1] relates to human hepatoma cells (HEP-G2). Kind of data set: Inhibition of 14C-acetate incorporation in digitonin-precipitatable steroids in HEP-G2 cells. The format is cell-based. The settings on record: for percent change in 14C-acetate incorporation into sterols at 0.1 µM / percent change in 14C-acetate incorporation into sterols at 0.01 µM: Homo sapiens; for percent change in 14C-acetate incorporation into sterols at 0.1 µM: HepG2, 10^-7 mol/l; for percent change in 14C-acetate incorporation into sterols at 0.01 µM: HepG2, 10^-8 mol/l. The procedure: I. Measurement of the inhibition of ^14 C-acetate incorporation in digitonin-precipitatable steroids:
After 3 days of culture, human hepatoma cells (HEP-G2) are stimulated for 16 hours in cholesterol-free medium. The substances to be tested (dissolved in dimethyl sulphoxide, final concentration 0.1%) are added during this stimulation phase. After the addition of 200 μmol/l of 2-^14 C-acetate, the mixture is then reincubated at 37° C. for a further 2 hours.
The cells are detached and the sterol esters are hydrolyzed and, after extraction, sterols are precipitated using digitonin. The ^14 C-acetate incorporated into digitonin-precipitatable sterols is determined by scintillation measurement.
The investigation of the inhibitory action was carried out at test concentrations of 10^-7 mol/l and 10^-8 mol/l. The test results of the following compounds A to AG of the general formula I are indicated at these test concentrations by way of example: […]

For data set [2], the system named is 2,3-epoxysqualene-lanosterol cyclase. Kind of data set: In vivo effect in the rat after oral administration: 2,3-epoxysqualene level in plasma. The settings on record: 5 hours after administration. Also on record: species or system rat (male Wistar). The procedure: II. Measurement of the in vivo effect in the rat after oral administration
The inhibition of the enzyme 2,3-epoxysqualene-lanosterol cyclase causes an increase in the 2,3-epoxy-squalene level in the liver and plasma. Therefore, the amount of 2,3-epoxysqualene formed therefore serves as a direct measure of the effectiveness in the whole animal. The determination is carried out by the following method:
The test substance suspended in 1.5% strength aqueous methylcellulose is administered via stomach tube to male Wistar rats (160-190 g body weight). 5 hours after administration, blood is obtained retroorbitally from the venous plexus. Plasma is extracted by the method of Bligh and Dyer (Canad. J. Biochem. Physiol. 37, 912, [1959]), purified by means of a precolumn and then analyzed by means of HPLC. The peaks obtained are identified and quantified by means of calibration substances. An internal standard is used to check the reproducibility of the results.
The investigations were carried out using concentrations of 0.1 and 1.0 mg/kg. The results for the above mentioned substances A to M are compiled in the following Table by way of example: […]

A short description of data set [3]: Toxic effects in the mouse after oral administration. Type of data set: in vivo. The settings on record: oral 100 mg/kg, once daily for 4 days. From the text:
The compounds A to I appeared to be non-toxic at the curative dose.

Data set [4] relates to Normal human epidermal keratinocytes (NHEK). Description: Inhibition of cell proliferation of keratinocytes. Type of data set: cell-based. The settings on record: 48 h, read-out: percentage decrease in cell numbers. As for the experimental part:
V. Inhibition of cell proliferation
Normal human epidermal keratinocytes (NHEK) are cultured under sterile conditions in keratinocyte growth medium (Gibco) in a humidified, 5% CO2 -containing atmosphere. Cells of the third passage are inoculated at a density of 12,000 cells/ml.
After 24 hours, the test substance is added to the medium and the number of cells is determined after a further 48 hours. The results were calculated in comparison to a control and are indicated as the percentage decrease in cell numbers.
The proliferation-inhibiting action of the above mentioned compound A was tested in comparison to simvastatin at concentrations of 10^-6 to 10^-10 mol/l.

The conditions of data set [5]: cited from earlier work.

On to `O=C(c1ccc(Cl)cc1)N1CCC(=Cc2ccc(C3=NCCCO3)cc2)CC1` [B, 1-(4-chlorobenzoyl)-4-[4-(4,5-dihydro-6H-oxazin-2-yl)benzylidene]piperidine], for which, in data set [1], the percent change in 14C-acetate incorporation into sterols at 0.1 µM was -77% and the percent change in 14C-acetate incorporation into sterols at 0.01 µM was -51%. Moreover, the “2,3-Epoxysqualene concentration in plasma (rat)” value (“2,3-Epoxysqualene concentration” for short) in data set [2] (0.1 mg/kg oral) worked out at 0.46 µg/mL. In addition, in data set [2] (1.0 mg/kg oral), the “2,3-Epoxysqualene concentration” value was 3.14 µg/mL.

`O=C(c1ccc(C(F)(F)F)cc1)N1CCC(=Cc2ccc(C3=NCCO3)cc2)CC1` [C, 4-[4-(2-oxazolin-2-yl)benzylidene]-1-(4-trifluoromethylbenzoyl)piperidine]: in data set [1], the percent change in 14C-acetate incorporation into sterols at 0.1 µM is -90% and the percent change in 14C-acetate incorporation into sterols at 0.01 µM was -74%. Besides, the “2,3-Epoxysqualene concentration” value in data set [2] (0.1 mg/kg oral) came to 0.91 µg/mL. Further, the “2,3-Epoxysqualene concentration” value in data set [2] (1.0 mg/kg oral) worked out at 5.90 µg/mL.

Turning to `Cc1cc(C(=O)N2CCC(=Cc3ccc(C4=NCCO4)cc3)CC2)ccc1Cl` [D, 1-(4-chloro-3-methylbenzoyl)-4-[4-(2-oxazolin-2-yl)benzylidene]piperidine], the percent change in 14C-acetate incorporation into sterols at 0.1 µM in data set [1] is -88%. Also, the percent change in 14C-acetate incorporation into sterols at 0.01 µM in data set [1] was -55%. Further, the “2,3-Epoxysqualene concentration” value in data set [2] (0.1 mg/kg oral) is 0.78 µg/mL; in data set [2] (1.0 mg/kg oral), 3.35 µg/mL.

Regarding `O=C(c1ccc(F)cc1)N1CCC(=Cc2ccc(C3=NCCO3)cc2)CC1` [E, 1-(4-fluorobenzoyl)-4-[4-(2-oxazolin-2-yl)benzylidene]piperidine], in data set [1], the percent change in 14C-acetate incorporation into sterols at 0.1 µM was -81% and the percent change in 14C-acetate incorporation into sterols at 0.01 µM is -36%. The “2,3-Epoxysqualene concentration” value in data set [2] (0.1 mg/kg oral) was determined as 0.67 µg/mL. Also, in data set [2] (1.0 mg/kg oral), the “2,3-Epoxysqualene concentration” value turned out to be 6.09 µg/mL.

On to `O=C(c1ccc(Cl)s1)N1CCC(=Cc2ccc(C3=NCCO3)cc2)CC1` [F, 1-(5-chloro-2-thienoyl)-4-[4-(2-oxazolin-2-yl)benzylidene]piperidine], for which, in data set [1] (10^-8 mol/l), the “inhibition of 14C-acetate incorporation” value is on record as -55%. Also, the percent change in 14C-acetate incorporation into sterols at 0.1 µM in data set [1] was -84%. Also, the figures for the “2,3-Epoxysqualene concentration” value in data set [2] (0.1 mg/kg oral) and in data set [2] (1.0 mg/kg oral) were 0.00 µg/mL and 2.00 µg/mL, respectively.

Take `O=C(C1CCCCC1)N1CCC(=Cc2ccc(C3=NCCO3)cc2)CC1` [G, 1-cyclohexanecarbonyl-4-[4-(2-oxazolin-2-yl)benzylidene]piperidine]: in data set [1], the percent change in 14C-acetate incorporation into sterols at 0.1 µM was -80% and the percent change in 14C-acetate incorporation into sterols at 0.01 µM is -45%. Further, the “2,3-Epoxysqualene concentration” value in data set [2] (0.1 mg/kg oral) is 0.36 µg/mL. In data set [2] (1.0 mg/kg oral), the “2,3-Epoxysqualene concentration” value was found to be 0.31 µg/mL.

Regarding `O=C(c1ccc(C(F)(F)F)cc1)N1CCC(Cc2ccc(C3=NCCO3)cc2)CC1` [H, 4-[4-(2-oxazolin-2-yl)benzyl]-1-(4-trifluoromethylbenzoyl)piperidine], in data set [1], the percent change in 14C-acetate incorporation into sterols at 0.1 µM was -86% and the percent change in 14C-acetate incorporation into sterols at 0.01 µM was -62%. Besides, the “toxic effects in the mouse” value in data set [3] is recorded as “no toxic effects”. The “2,3-Epoxysqualene concentration” value in data set [2] (0.1 mg/kg oral) came out at 1.70 µg/mL. Moreover, in data set [2] (1.0 mg/kg oral), the “2,3-Epoxysqualene concentration” value turned out to be 9.15 µg/mL.

Consider `O=C(c1ccc(Cl)cc1)N1CCC(=Cc2ccc(C3=NCCO3)cc2)C1` [K, 1-(4-chlorobenzoyl)-3-[4-(2-oxazolin-2-yl)benzylidene]pyrrolidine], for which, in data set [1], the percent change in 14C-acetate incorporation into sterols at 0.1 µM was -90% and the percent change in 14C-acetate incorporation into sterols at 0.01 µM is -56%. In addition, in data set [2] (0.1 mg/kg oral), the “2,3-Epoxysqualene concentration” value came out at 0.0 µg/mL. In addition, the “2,3-Epoxysqualene concentration” value in data set [2] (1.0 mg/kg oral) stood at 4.14 µg/mL.

For the compound `O=C(c1ccc(Cl)cc1)N1CCC(=Cc2ccc(C3=NCCO3)cc2F)CC1` [L, 1-(4-chlorobenzoyl)-4-[2-fluoro-4-(2-oxazolin-2-yl)benzylidene]piperidine], in data set [1], the percent change in 14C-acetate incorporation into sterols at 0.1 µM was -83% and the percent change in 14C-acetate incorporation into sterols at 0.01 µM is -52%. In data set [2] (0.1 mg/kg oral), the “2,3-Epoxysqualene concentration” value was determined as 0.44 µg/mL. Also, the “2,3-Epoxysqualene concentration” value in data set [2] (1.0 mg/kg oral) stood at 6.46 µg/mL.

For the compound `Cc1cc(C=C2CCN(C(=O)c3ccc(Cl)cc3)CC2)ccc1C1=NCCO1` [M, 1-(4-chlorobenzoyl)-4-[3-methyl-4-(2-oxazolin-2-yl)benzylidene]piperidine], in data set [1], the percent change in 14C-acetate incorporation into sterols at 0.1 µM is -76% and the percent change in 14C-acetate incorporation into sterols at 0.01 µM was -32%. Besides, the “2,3-Epoxysqualene concentration” value in data set [2] (0.1 mg/kg oral) turned out to be 0.78 µg/mL. In data set [2] (1.0 mg/kg oral), the “2,3-Epoxysqualene concentration” value is 6.53 µg/mL.

For the compound `CCC(C)(C)C(=O)O[C@H]1C[C@@H](C)C=C2C=C[C@H](C)[C@H](CC[C@@H]3C[C@@H](O)CC(=O)O3)[C@H]21` [Simvastatin, simvastatin, reference compound], in data set [4], the inhibition at 0.0001 µM is 7%, the inhibition at 0.001 µM is 21%, the inhibition at 0.01 µM was determined as 20% and the inhibition at 0.1 µM was determined as 51%. For the same compound, the inhibition at 1 µM in data set [4] stood at 68%.

Regarding `CC[C@H](C)C(=O)O[C@H]1C[C@H](O)C=C2C=C[C@H](C)[C@H](CC[C@@H](O)C[C@@H](O)CC(=O)O)[C@H]21` [pravastatin], the “cholesterol concentration in the bile / lithogenic index” value in data set [5] (Gut 31, 348-350 [1990], Z. Gastroenterol. 29, 242-245 [1991]) is “can cause a reduction of the cholesterol concentration in the bile”. Besides, the gallstone formation entry in data set [5] (in vivo) was “do not lead to increased gallstone formation”.

Values taken from patent publication US5466687A, “Arylidene-1-azacycloalkanes and arylalkyl-1-azacyclo-alkanes, their salts, medicaments containing these compounds and their use, and processes for their preparation” (priority 1992, dated 1995).
